Laboratory results from patent publication US11821005B2, “Umbilical cord mesenchymal stem cells (MSCs) and culture method and application thereof” (FOSHAN JINGZHUN JIEN HEALTH MANAGEMENT CONSULTING CO., LTD., priority 2019, dated 2023).
Structures can show the parent of a compound that is named as a salt.

Test system: umbilical cord MSCs (P3-P5 cells)
Experiment: agglomeration of cultured MSCs after adding ligustrazine hydrochloride and/or Shenmai injection (cell graphs)
Format: cell-based, human
Details: Day 1 after addition, ligustrazine hydrochloride 40-80 mg/L, Shenmai injection 0.5% by volume, FIG. 1 to FIG. 9
Experimental: 2.9 A ligustrazine hydrochloride (GYZZ H20041175 injection of Harbin Medisan Pharmaceutical Co., Ltd., which follows the Second Supplement to the National Standard and can be directly injected into human bodies) and a Shenmai injection (GYZZ Z63021721 of Yunnan Phytopharmaceutical Co., Ltd., which follows the National Drug Standard (Amendment) WS3-B-3428-98-2010 and can be directly injected into human bodies) were added to P3-P5 cells respectively. The concentration of the ligustrazine hydrochloride was 40-80 mg/L and the Shenmai injection was 0.5% by volume. After culture for 24 hours, change the medium and culture for another one week, the cells grown to a fusion degree of 80-90% were collected and digested for tests. The products obtained in the steps are biodetected to eliminate etiological contamination.
The cells were divided into three groups: a. only the Shenmai injection was added; b. only the ligustrazine hydrochloride was added; and c. both the Shenmai injection and the ligustrazine hydrochloride were added for comparison.

Cc1nc(C)c(C)nc1C [ligustrazine hydrochloride]
agglomeration of the cells: improved to some extent
